Patent publication US6596741B2, “Biaryl ether derivatives useful as monoamine reuptake inhibitors” (Pfizer Inc, priority 1999, dated 2003)
Structures can show the parent of a compound that is named as a salt.

| SMILES | melting point [°C] |
| --- | --- |
| CNCc1cc(-c2ccncc2)ccc1Oc1ccc(Cl)c(Cl)c1 (as salt: HCl) (hydrate or solvate) [Example 14, [2-(3,4-Dichlorophenoxy)-5-pyridin-4-ylbenzyl]-methylamine] | 179 to 181 |
| CNCc1cc(-c2ccco2)ccc1Oc1ccc(Cl)c(Cl)c1 (as salt: HCl) (hydrate or solvate) [Example 6, [2-(3,4-Dichlorophenoxy)-5-furan-2-ylbenzyl]-methylamine] | 188 to 191 |
| CNCc1cc(-c2ccc(C)cc2)ccc1Oc1ccc(Cl)c(Cl)c1 (as salt: HCl) (hydrate or solvate) [Example 3, [4-(3,4-Dichlorophenoxy)-4′-methyl-biphenyl-3-ylmethyl]-methylamine] | 208 to 210 |
| CNCc1cc(N2CCCC2=O)ccc1Oc1ccc(Cl)c(Cl)c1 (as salt: HCl) [Example 19, 1-[4-(3,4-Dichlorophenoxy)-3-(methylaminomethyl)phenyl]-pyrrolidin-2-one] | 166 to 170 |
| CNCc1cc(-n2ccc(N)n2)ccc1Oc1ccc(Cl)c(Cl)c1.Cl.Cl | 225 to 233 |
| CNCc1cc(-c2cccnc2)ccc1Oc1ccc(Cl)c(Cl)c1 (as salt: HCl) [Example 13, [2-(3,4-Dichlorophenoxy)-5-pyridin-3-ylbenzyl]-methylamine] | 168 to 171 |
| CNCc1ccc(-c2ccccc2)cc1Oc1ccc(Cl)c(Cl)c1 (as salt: HCl) [Example 2, [3-(3,4-Dichlorophenoxy)-biphenyl-4-ylmethyl]-methylamine] | 186 to 194 |
| CNCc1ccc(-c2ccco2)cc1Oc1ccc(Cl)c(Cl)c1 (hydrate or solvate) [Example 7, [2-(3,4-Dichlorophenoxy)-4-furan-2-ylbenzyl]-methylamine] | 129 to 134 |
| CNCc1ccc(-c2cccs2)cc1Oc1ccc(Cl)c(Cl)c1 (as salt: HCl) [Example 11, [2-(3,4-Dichlorophenoxy)-4-thiophen-2-ylbenzyl]-methylamine] | 180 to 183 |
| CNCc1cc(-c2ccsc2)ccc1Oc1ccc(Cl)c(Cl)c1 (as salt: HCl) [Example 8, [2-(3,4-Dichlorophenoxy)-5-thiophen-3-ylbenzyl]-methylamine] | 169 to 172 |
| CNCc1cc(-c2cccs2)ccc1Oc1ccc(Cl)c(Cl)c1 (as salt: HCl) [Example 10, [2-(3,4-Dichlorophenoxy)-5-thiophen-2-ylbenzyl]-methylamine] | 207 to 209 |
| CNC(C)c1cc(N2CCCC2=O)ccc1Oc1ccc(Cl)c(Cl)c1.Cl (stereo not shown) | 195 to 200 |
| CNCc1ccc(-c2ccsc2)cc1Oc1ccc(Cl)c(Cl)c1 (as salt: HCl) (hydrate or solvate) [Example 9, [2-(3,4-Dichlorophenoxy)-4-thiophen-3-ylbenzyl]-methylamine] | 181 to 184 |
